Experimental data taken from article PMC6629693 (Scientific Reports, 2019).
“Also recorded” adds a separate entry of the source. Where two headings read alike, the source gives them in different places.

Columns and labels:
[1] = target: T1, D206A HtxB (Stutzerimonas stutzeri, UniProt O69061, D238A); assay: biochemical
[2] = Fig. 1; no reference given; cited from earlier work
[3] = target: T2, WT HtxB (Stutzerimonas stutzeri, UniProt O69061); conditions: 10 mM phosphite, 1 mM HtxB
[4] = target: T2, WT HtxB; assay: biochemical
[5] = target: HtxB; conditions: cited from earlier work
[6] = target: T2, WT HtxB; conditions: pH 5
[7] = target: T1, D206A HtxB
[8] = target: T1, D206A HtxB; conditions: 10 mM phosphite, pH range 4-9
[9] = target: D206N HtxB (Stutzerimonas stutzeri, UniProt O69061, D238N); assay: biochemical; assay type: binding, Pseudomonas stutzeri
D206N HtxB, sequence (O69061 34-298 D238N limits assumed): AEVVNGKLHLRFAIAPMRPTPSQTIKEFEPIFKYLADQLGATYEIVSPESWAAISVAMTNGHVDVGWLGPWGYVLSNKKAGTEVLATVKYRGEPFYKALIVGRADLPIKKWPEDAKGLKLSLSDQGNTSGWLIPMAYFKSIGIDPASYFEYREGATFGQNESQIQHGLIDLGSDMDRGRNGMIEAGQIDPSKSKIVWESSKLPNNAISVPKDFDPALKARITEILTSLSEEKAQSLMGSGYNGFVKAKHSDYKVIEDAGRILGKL

T2 sequence (O69061 34-298): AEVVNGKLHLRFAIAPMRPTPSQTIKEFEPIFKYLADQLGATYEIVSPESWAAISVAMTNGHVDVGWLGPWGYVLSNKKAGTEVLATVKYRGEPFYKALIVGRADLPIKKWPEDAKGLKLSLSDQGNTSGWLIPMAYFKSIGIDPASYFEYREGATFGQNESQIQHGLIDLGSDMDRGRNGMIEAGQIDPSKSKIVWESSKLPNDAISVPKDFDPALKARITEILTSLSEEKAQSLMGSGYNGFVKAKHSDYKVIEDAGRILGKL
T1 sequence (O69061 34-298 D238A): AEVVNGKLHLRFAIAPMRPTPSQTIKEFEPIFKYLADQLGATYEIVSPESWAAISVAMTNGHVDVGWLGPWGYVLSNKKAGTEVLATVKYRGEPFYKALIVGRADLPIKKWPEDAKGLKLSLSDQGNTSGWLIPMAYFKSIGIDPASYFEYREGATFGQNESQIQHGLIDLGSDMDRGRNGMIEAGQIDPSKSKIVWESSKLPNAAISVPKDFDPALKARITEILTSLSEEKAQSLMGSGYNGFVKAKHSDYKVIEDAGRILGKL

Row | Compound | Kd [1] | pKa2 [2] | pH of maximal line broadening ([3]; pH 9-4) | linebroadening of the 31P peak (in words) ([3]; reducing pH from 9 to 4) | Kd [4] | Kd ([5]; pH 7.4) | fold lower affinity than hypophosphite at the same pH [6] | binding (in words) ([7]; pH 7.4) | Kd ([7]; read-out: Calculated Kd, pH 5) | linebroadening of the 31P peak (in words) [8] | Kd [9] | Kd ([9]; read-out: Calculated Kd, pH 5) | binding (in words) [5] | ligand concentration at which protein was not saturated in full titration ([9]; 50 mM HEPES pH 7.4) | binding (in words) ([9]; 50 mM HEPES pH 7.4, 100 mM phosphate)
1 | O=[PH](O)O [phosphite] | > 100 mM | 1.3 | 6 | significant linebroadening | 1.74 mM | > 10 mM | ca. 1000 × | No evidence of D206A HtxB binding | > 100 mM | did not show significant linebroadening | > 100 mM | > 100 mM | – | – | –
2 | phosphate | – | – | – | – | – | – | – | – | – | – | – | – | does not bind | > 100 mM | weakly; also recorded: incredibly weak
